Reference: patent US12721844B2, “Chronic kidney disease treatment or prevention method” (Japan Tobacco Inc., priority 2019, dated 2026)

Columns and labels:
[1] = system: Salmonella typhimurium TA1535; test: Ames test (reverse mutation test), TA1535; assay type: cell-based
From the text: (§1) Ames Test (Reverse Mutation Test)
(§2) Two plates per treatment were used.

[2] = system: Salmonella typhimurium (TA98, TA1537, TA100, and TA1535) and Escherichia coli (WP2 uvrA); test: Ames test (reverse mutation test), all bacterial tester strains; assay type: cell-based; details: any of the bacterial tester strains, with and/or without S9 mix
From the text: as §1, §2

[3] = with S9 mix, dose 1667 μg/plate
[4] = with S9 mix, dose 5000 μg/plate
[5] = without S9 mix, dose 6.9 μg/plate
[6] = without S9 mix, dose 21 μg/plate
[7] = without S9 mix, dose 62 μg/plate
[8] = without S9 mix, dose 185 μg/plate
[9] = without S9 mix, dose 556 μg/plate
[10] = without S9 mix, dose 1667 μg/plate
[11] = without S9 mix, dose 5000 μg/plate

Structure (SMILES) | Number of revertant colonies TA1535 ([1]; with S9 mix, dose 2.3 μg/plate) | Number of revertant colonies TA1535 ([1]; with S9 mix, dose 6.9 μg/plate) | Number of revertant colonies TA1535 ([1]; with S9 mix, dose 21 μg/plate) | Number of revertant colonies TA1535 ([1]; with S9 mix, dose 62 μg/plate) | Number of revertant colonies TA1535 ([1]; with S9 mix, dose 185 μg/plate) | Number of revertant colonies TA1535 ([1]; with S9 mix, dose 556 μg/plate) | Number of revertant colonies TA1535 [1, 3] | Number of revertant colonies TA1535 [1, 4] | Number of revertant colonies TA1535 ([1]; without S9 mix, dose 2.3 μg/plate) | Number of revertant colonies TA1535 [1, 5] | Number of revertant colonies TA1535 [1, 6] | Number of revertant colonies TA1535 [1, 7] | Number of revertant colonies TA1535 [1, 8] | Number of revertant colonies TA1535 [1, 9] | Number of revertant colonies TA1535 [1, 10] | Number of revertant colonies TA1535 [1, 11] | potential to induce reverse mutations [2]
CC(C)(C)Oc1cc(F)cc(-c2cc(N)nn2C(F)(F)F)c1 [Metabolite 1] | 13 | 7 | 6 | 8 | 5 | 4 | 4 | 2 | 6 | 9 | 8 | 8 | 0 | 0 | 0 | 0 | did not show potential to induce reverse mutations
Nc1cc(-c2cc(F)cc(OC(F)(F)F)c2)n(-c2cncc(F)c2)n1 [Metabolite 3] | – | 8 | 9 | 11 | 9 | 4 | 3 | 1 | – | 9 | 11 | 10 | 8 | 8 | 0 | 0 | did not show potential to induce reverse mutations
